Data: US8129371B2, “Thienopyrimidine and pyrazolopyrimidine compounds and their use as mTOR kinase and PI3 kinase inhibitors” (Wyeth LLC, priority 2007, dated 2012)
Where two headings read alike, the source gives them in different places.

How the values were obtained:
Human mTOR (FLAG-TOR) = molecular target: T1, Human mTOR (FLAG-TOR) (Homo sapiens, UniProt P42345); experiment: Human mTOR kinase assay with purified enzyme, DELFIA format; type: biochemical
T1 construct: FLAG
How it was run: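 DELFIA readout: Eu-anti-P(T389)-S6K antibody (40 ng/mL, 1 h) on captured His6-S6K from the stopped reaction. Kinase step used purified FLAG-tagged human mTOR with test compound in HEPES (pH 7.4)/MnCl2/DTT buffer, 2 h at room temperature (linear 1–6 h), terminated by EDTA/EGTA.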

prostate line LNCap = experiment: In vitro cell culture growth assay (MTS), LNCap; type: cell-based; conditions: Homo sapiens, LNCaP, 72 h, LNCap cells, three days after drug treatment
How it was run: (§1)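 Viable cell density is assessed three days after inhibitor addition via MTS conversion, normalised to vehicle-treated cells.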

PI3K [1] = molecular target: T2, PI3K (Homo sapiens, UniProt P48736); experiment: Fluorescence polarization assay for PI3K; type: biochemical; conditions: read-out: PI3 Kinase γ IC50
T2 construct: PI3 Kinase γ IC50; other: PI3 Kinase γ; other: PI3 Kinase γ isoform, fluorescence polarization
T2 sequence (P48736 whole entry, canonical isoform): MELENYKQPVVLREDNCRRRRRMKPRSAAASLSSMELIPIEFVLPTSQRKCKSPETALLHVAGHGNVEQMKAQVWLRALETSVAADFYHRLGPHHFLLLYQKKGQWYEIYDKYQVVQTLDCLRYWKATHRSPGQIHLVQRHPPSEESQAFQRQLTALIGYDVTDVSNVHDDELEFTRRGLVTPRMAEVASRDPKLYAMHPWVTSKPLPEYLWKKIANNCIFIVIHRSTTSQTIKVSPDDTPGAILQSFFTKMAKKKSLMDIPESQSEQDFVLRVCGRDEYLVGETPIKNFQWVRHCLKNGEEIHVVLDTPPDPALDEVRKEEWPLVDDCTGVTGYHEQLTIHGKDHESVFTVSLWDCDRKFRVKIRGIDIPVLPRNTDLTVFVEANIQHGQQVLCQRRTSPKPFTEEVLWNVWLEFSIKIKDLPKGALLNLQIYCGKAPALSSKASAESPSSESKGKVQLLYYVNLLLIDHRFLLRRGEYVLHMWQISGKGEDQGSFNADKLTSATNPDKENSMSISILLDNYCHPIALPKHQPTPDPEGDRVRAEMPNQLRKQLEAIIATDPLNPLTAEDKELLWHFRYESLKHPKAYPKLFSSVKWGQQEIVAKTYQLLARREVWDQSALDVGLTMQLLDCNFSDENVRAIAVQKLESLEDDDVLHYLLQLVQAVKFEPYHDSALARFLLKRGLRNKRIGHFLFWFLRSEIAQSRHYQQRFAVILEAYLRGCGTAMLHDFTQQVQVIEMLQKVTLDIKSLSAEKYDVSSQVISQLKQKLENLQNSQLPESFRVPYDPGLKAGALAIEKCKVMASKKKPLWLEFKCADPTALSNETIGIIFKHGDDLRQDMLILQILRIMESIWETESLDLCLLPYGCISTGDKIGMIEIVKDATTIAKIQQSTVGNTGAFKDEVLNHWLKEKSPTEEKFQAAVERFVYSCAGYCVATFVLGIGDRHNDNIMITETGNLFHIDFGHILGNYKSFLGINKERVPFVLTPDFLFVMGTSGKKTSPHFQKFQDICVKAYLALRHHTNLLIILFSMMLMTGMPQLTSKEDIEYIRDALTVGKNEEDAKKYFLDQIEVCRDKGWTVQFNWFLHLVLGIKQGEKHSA
How it was run: (§2)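 Fluorescence-polarization competition readout: after 30–60 min of PIP2/ATP turnover in 1% DMSO, a stop mix with GST-GRP (70 nM) and red probe (10 nM) was added.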

PI3K [2] = molecular target: T3, PI3K (Homo sapiens, UniProt P42336); experiment: Fluorescence polarization assay for PI3K; type: biochemical; conditions: read-out: PI3 Kinase α IC50
T3 construct: PI3 Kinase α IC50; other: PI3 Kinase α; other: PI3 Kinase α isoform, fluorescence polarization
T3 sequence (P42336 whole entry, canonical isoform): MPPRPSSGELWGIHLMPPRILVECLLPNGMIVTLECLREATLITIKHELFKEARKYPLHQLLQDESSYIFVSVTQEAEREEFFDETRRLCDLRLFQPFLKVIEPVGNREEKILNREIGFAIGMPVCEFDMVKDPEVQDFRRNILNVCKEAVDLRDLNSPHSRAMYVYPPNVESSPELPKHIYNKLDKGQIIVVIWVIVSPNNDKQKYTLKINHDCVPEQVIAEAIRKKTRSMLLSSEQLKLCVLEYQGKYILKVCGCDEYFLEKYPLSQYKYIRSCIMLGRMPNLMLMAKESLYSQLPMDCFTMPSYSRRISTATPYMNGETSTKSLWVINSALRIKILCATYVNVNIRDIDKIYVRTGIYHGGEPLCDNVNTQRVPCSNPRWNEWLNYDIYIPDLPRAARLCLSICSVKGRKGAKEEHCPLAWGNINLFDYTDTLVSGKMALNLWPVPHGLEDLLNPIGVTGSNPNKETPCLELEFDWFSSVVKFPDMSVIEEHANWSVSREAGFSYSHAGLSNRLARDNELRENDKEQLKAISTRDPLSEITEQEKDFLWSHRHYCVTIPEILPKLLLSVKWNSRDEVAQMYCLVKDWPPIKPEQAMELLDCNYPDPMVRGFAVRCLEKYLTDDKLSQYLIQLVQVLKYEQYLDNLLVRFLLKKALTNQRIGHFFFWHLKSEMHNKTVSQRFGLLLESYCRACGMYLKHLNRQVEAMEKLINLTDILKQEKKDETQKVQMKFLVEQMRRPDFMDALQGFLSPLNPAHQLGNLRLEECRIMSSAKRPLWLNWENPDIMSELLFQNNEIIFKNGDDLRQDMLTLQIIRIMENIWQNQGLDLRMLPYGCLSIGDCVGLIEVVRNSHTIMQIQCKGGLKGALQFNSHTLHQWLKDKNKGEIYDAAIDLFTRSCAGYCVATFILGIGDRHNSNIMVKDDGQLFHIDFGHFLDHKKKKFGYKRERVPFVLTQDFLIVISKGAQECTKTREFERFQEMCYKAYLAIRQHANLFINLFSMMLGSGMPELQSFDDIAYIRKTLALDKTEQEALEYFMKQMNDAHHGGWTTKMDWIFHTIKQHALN
How it was run: as §2

breast line MDA468 = experiment: In vitro cell culture growth assay (MTS), MDA468; type: cell-based; conditions: Homo sapiens, 72 h, MDA468 cells, three days after drug treatment
How it was run: as §1

Row | Structure (SMILES) | IC50 (Human mTOR (FLAG-TOR)) [nM] | IC50 (prostate line LNCap) [nM] | IC50 (PI3K [1]; PI3 Kinase γ) [nM] | IC50 (PI3K [2]; PI3 Kinase α) [nM] | IC50 (breast line MDA468) [nM] | IC50 (Human mTOR (FLAG-TOR); purified human mTOR enzyme, DELFIA format) [nM] | IC50 (PI3K [1]; PI3 Kinase γ isoform, fluorescence polarization) [nM] | IC50 (PI3K [2]; PI3 Kinase α isoform, fluorescence polarization) [nM]
1 | COC(=O)Nc1ccc(-c2nc(N3CC4CCC(C3)O4)c3cnn(C(C)(C)C)c3n2)cc1 [Example 92] | 11.7 | 1800 | > 10000 | > 10000 | 30000 | – | – | –
2 | CC(C)n1ncc2c(N3CC4CCC(C3)O4)nc(-c3ccc(NC(=O)NCCF)cc3)nc21 [Example 141, 1-(2-fluoroethyl)-3-{4-[1-isopropyl-4-(8-oxa-3-azabicyclo[3.2.1]oct-3-yl)-1H-pyrazolo[3,4-d]pyrimidin-6-yl]phenyl}urea] | 0.155 | 1 | 6370 | 648 | 40 | – | – | –
3 | N#CCCn1ncc2c(N3CC4CCC(C3)O4)nc(-c3ccc(NC(=O)Nc4ccc(N5CCOCC5)cc4)cc3)nc21 [Example 221, 1-{4-[1-(2-cyanoethyl)-4-(8-oxa-3-azabicyclo[3.2.1]oct-3-yl)-1H-pyrazolo[3,4-d]pyrimidin-6-yl]phenyl}-3-(4-morpholin-4-ylphenyl)urea] | 0.235 | < 1 | 4790 | 444 | 3 | – | – | –
4 | CCNC(=O)Nc1ccc(-c2nc(N3CC4CCC(C3)O4)c3cnn(CCF)c3n2)cc1 [Example 247, 1-ethyl-3-{4-[1-(2-fluoroethyl)-4-(8-oxa-3-azabicyclo[3.2.1]oct-3-yl)-1H-pyrazolo[3,4-d]pyrimidin-6-yl]phenyl}urea] | 0.7 | 90 | > 10000 | 1360 | 400 | – | – | –
5 | Cn1ncc2c(N3CC4CCC(C3)O4)nc(-c3ccc(NC(=O)Nc4ccc(CO)cc4)cc3)nc21 [Example 231, 1-[4-(hydroxymethyl)phenyl]-3-{4-[1-methyl-4-(8-oxa-3-azabicyclo[3.2.1]oct-3-yl)-1H-pyrazolo[3,4-d]pyrimidin-6-yl]phenyl}urea] | 0.13 | < 1 | 468 | 47 | < 1 | – | – | –
6 | CN1CCN(c2ccc(NC(=O)Nc3ccc(-c4nc(N5C[C@@H]6C[C@H]5CO6)c5cnn(CC(F)(F)F)c5n4)cc3)cc2)CC1 [Example 295, 1-[4-(4-methylpiperazin-1-yl)phenyl]-3-(4-{4-[(1S,4S)-2-oxa-5-azabicyclo[2.2.1]hept-5-yl]-1-(2,2,2-trifluoroethyl)-1H-pyrazolo[3,4-d]pyrimidin-6-yl}phenyl)urea] | 2.33 | 1 | 4670 | 410 | 13 | – | – | –
7 | CCNC(=O)Nc1ccc(-c2nc(N3CC4CCC(C3)O4)c3cnn(C)c3n2)cc1 [Example 51, 1-ethyl-3-{4-[1-methyl-4-(8-oxa-3-azabicyclo[3.2.1]oct-3-yl)-1H-pyrazolo[3,4-d]pyrimidin-6-yl]phenyl}urea] | 1.6 | 46 | 7910 | 799 | 390 | – | – | –
8 | CCn1ncc2c(N3CC4CCC(C3)O4)nc(-c3ccc(NC(=O)Nc4ccc(C#N)cc4)cc3)nc21 [Example 190, 1-(4-cyanophenyl)-3-{4-[1-ethyl-4-(8-oxa-3-azabicyclo[3.2.1]oct-3-yl)-1H-pyrazolo[3,4-d]pyrimidin-6-yl]phenyl}urea] | 0.505 | 4 | 3050 | 542 | 33 | – | – | –
9 | CNC(=O)Nc1ccc(-c2nc(N3CC4CCC(C3)O4)c3cnn(C4CCN(CC(F)(F)F)CC4)c3n2)cc1 [Example 26, 1-methyl-3-(4-{4-(8-oxa-3-azabicyclo[3.2.1]oct-3-yl)-1-[1-(2,2,2-trifluoroethyl)piperidin-4-yl]-1H-pyrazolo[3,4-d]pyrimidin-6-yl}phenyl)urea] | 1.1 | 27 | > 10000 | 1280 | 190 | – | – | –
10 | CCn1ncc2c(N3CC4CCC(C3)O4)nc(-c3ccc(NC(=O)NCCO)cc3)nc21 [Example 44, 1-{4-[1-ethyl-4-(8-oxa-3-azabicyclo[3.2.1]oct-3-yl)-1H-pyrazolo[3,4-d]pyrimidin-6-yl]phenyl}-3-(2-hydroxyethyl)urea] | 0.34 | 220 | 12000 | 416 | 370 | – | – | –
11 | CS(=O)(=O)N1CCN(Cc2cc3nc(-c4ccc(NC(=O)NC5CC5)cc4)nc(N4CC5CCC(C4)O5)c3s2)CC1 [Example 431, 1-cyclopropyl-3-{4-[6-{[4-(methylsulfonyl)piperazin-1-yl]methyl}-4-(8-oxa-3-azabicyclo[3.2.1]oct-3-yl)thieno[3,2-d]pyrimidin-2-yl]phenyl}urea] | – | 32 | – | – | 200 | 1.01 | 1530 | 179
